According to patent US20260070887A1 (Shenzhen Zhongge Biological Technology Co., Ltd., priority 2022, published 2026):
Like-named read-outs stand apart in the source and are kept apart here.

Key:
[1] = target: KIF18A (Homo sapiens (Human), UniProt Q8NI77); assay: KIF18A ATPase activity under tubulin stimulation (ADP-Glo assay); format: biochemical; settings: KIF18A 30 nM, ATP 150 μM, pig microtubules
[2] = system: OVCAR-3 cells; assay: OVCAR-3 cell proliferation (Cell Titer-Glo, 10 days); format: cell-based, human
Description: The inhibitory effect on the KIF18A target by the compounds of the present disclosure was evaluated by testing the inhibitory effect on proliferation of OVCAR-3 cells by the compounds of the present disclosure.
The following method was used to determine the effect of the compounds of the present disclosure on the proliferation of human ovarian cancer cells Ovcar-3 (HTB-161, ATCC). Cells were cultured in RPMI-1640 complete medium containing 20% fetal bovine serum, 0.01 mg/mL bovine insulin, 100 U penicillin, and 100 μg/mL streptomycin. The Promega kit Cell Titer-Glo (Cat. No. G7572) was used in this method for test.
For specific steps, reference was made to the kit instructions, and the procedure was outlined below: Test compounds were dissolved in DMSO to prepare a 10 mM stock solution, which was diluted at the predetermined test concentrations, and the test compounds at different concentrations were added to a 384-well cell test plate using ECHO. In the plate pre-added with the test compounds, 400 OVCAR-3 cells in the logarithmic growth phase were seeded per well, ensuring the final concentration of the test compounds in the reaction system ranged between 0.12 nM and 10 μM. The co-culture was maintained in a cell culture incubator for 10 days. Before testing, the cell culture plate was equilibrated for 10 minutes at room temperature, 25 μL of Cell Titer-Glo was added to each well, and the mixture was shaken and mixed well and let stand for 5 minutes. The luminescence values for samples in various wells were read using a microplate reader in Luminescence mode.
The percentage of inhibition of cell proliferation by the test compound at each concentration was calculated by comparing with the values of the control group (0.1% DMSO). The IC50 values of the compounds were obtained by concentration-inhibition rate nonlinear regression analysis of the test compounds using GraphPad Prism 9.

Sequence of KIF18A (Q8NI77 whole entry): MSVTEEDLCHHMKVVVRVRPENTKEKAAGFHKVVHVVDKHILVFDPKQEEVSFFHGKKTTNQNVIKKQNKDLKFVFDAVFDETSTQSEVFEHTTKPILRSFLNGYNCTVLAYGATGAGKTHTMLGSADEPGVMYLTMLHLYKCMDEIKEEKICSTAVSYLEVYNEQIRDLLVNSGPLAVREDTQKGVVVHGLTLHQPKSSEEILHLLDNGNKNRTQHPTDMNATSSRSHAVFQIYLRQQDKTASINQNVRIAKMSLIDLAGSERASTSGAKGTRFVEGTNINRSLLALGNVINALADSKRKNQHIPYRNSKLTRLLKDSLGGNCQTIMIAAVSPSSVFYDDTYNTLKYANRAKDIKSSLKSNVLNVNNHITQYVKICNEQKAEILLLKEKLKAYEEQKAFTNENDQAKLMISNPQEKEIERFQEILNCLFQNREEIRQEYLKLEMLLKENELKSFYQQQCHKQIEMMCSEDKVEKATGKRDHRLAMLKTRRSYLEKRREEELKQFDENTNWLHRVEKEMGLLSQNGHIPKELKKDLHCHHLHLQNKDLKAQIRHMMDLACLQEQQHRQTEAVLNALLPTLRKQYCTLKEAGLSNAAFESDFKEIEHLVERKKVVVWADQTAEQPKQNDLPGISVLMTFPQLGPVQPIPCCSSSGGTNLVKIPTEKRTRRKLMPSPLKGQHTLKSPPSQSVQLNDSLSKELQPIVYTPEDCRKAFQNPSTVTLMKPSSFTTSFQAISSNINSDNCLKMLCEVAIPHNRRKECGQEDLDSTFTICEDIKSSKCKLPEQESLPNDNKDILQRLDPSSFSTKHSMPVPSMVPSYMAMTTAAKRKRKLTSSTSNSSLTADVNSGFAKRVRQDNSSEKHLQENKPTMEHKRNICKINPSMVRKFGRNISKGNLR
Sequence of KIF18A (P02550 whole entry partner): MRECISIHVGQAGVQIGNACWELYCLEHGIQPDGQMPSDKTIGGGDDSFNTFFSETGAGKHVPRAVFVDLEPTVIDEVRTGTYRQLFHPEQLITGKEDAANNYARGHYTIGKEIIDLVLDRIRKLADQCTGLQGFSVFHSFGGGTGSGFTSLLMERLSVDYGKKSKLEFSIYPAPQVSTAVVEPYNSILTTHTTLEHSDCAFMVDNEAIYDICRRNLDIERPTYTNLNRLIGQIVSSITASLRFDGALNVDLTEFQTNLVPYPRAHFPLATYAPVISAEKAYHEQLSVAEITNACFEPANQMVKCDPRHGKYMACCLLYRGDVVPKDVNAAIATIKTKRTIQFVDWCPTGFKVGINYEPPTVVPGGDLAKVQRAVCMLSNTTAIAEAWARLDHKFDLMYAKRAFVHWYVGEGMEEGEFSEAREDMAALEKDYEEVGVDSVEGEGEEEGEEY
Sequence of KIF18A (P02554 whole entry partner): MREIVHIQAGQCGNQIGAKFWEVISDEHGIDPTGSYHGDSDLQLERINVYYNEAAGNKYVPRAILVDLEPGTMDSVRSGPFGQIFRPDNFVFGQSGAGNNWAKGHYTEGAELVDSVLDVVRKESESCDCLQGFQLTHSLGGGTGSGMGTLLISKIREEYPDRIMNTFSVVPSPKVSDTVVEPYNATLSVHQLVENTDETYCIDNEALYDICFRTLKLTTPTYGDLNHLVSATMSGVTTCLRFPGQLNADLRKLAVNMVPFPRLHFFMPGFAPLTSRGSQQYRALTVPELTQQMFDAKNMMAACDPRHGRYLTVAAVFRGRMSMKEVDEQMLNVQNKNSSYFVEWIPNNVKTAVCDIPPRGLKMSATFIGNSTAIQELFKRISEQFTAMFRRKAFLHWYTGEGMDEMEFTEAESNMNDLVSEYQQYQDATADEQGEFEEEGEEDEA

| IC50 [1] [nM] | IC50 ([2]; Homo sapiens, OVCAR-3, 240 h) [nM] | Structure (SMILES) | IC50 [2] [nM] |
| --- | --- | --- | --- |
| 50 to 500 | > 5000 | O=C(Nc1cccc2c1cc1n2CCOC1=O)c1ccc(NS(=O)(=O)CCO)cc1N1CCC2(CC1)CC2 [Example 346, 4-((2-hydroxyethyl)sulfonamido)-N-(1-oxo-3,4-dihydro-1H-[1,4]oxazino[4,3-a]indol-9-yl)-2-(6-azaspiro[2.5]oct-6-yl)benzamide] |  |
| ≤ 50 |  | O=C(Nc1ccc(NS(=O)(=O)CCO)cc1N1CCC2(CC1)CC2)c1cccc2c1cc1n2CCOC1 [Example 357] | 50 to 500 |
| ≤ 50 | ≤ 50 | O=C(Nc1cc(F)cc2c1cc1n2CCOC1)c1ccc(NS(=O)(=O)CCO)cc1N1CCC2(CC1)CC2 [Example 366, N-(7-fluoro-3,4-dihydro-1H-[1,4]oxazino[4,3-a]indol-9-yl)-4-((2-hydroxyethyl)sulfonamido)-2-(6-azaspiro[2.5]oct-6-yl)benzamide] |  |
| ≤ 50 | 50 to 500 | O=C(Nc1cc(F)cc2c1cc1n2CCOC1)c1ccc(NS(=O)(=O)CCO)cc1N1CCC(=C(F)F)CC1 [Example 367, 2-(4-(difluoromethylene)piperidin-1-yl)-N-(7-fluoro-3,4-dihydro-1H-[1,4]oxazino[4,3-a]indol-9-yl)-4-((2-hydroxyethyl)sulfonamido)benzamide] |  |
| ≤ 50 | ≤ 50 | O=C(Nc1cc(F)cc2c1nc1n2CCOC1)c1ccc(NS(=O)(=O)CCO)cc1N1CCC2(CC1)CC2 [Example 368, N-(7-fluoro-3,4-dihydro-1H-benzo[4,5]imidazo[2,1-c][1,4]oxazin-9-yl)-4-((2-hydroxyethyl)sulfonamido)-2-(6-azaspiro[2.5]oct-6-yl)benzamide] |  |
| ≤ 50 | 50 to 500 | O=C(Nc1cc(F)cc2c1nc1n2CCOC1)c1ccc(NS(=O)(=O)CCO)cc1N1CCC(=C(F)F)CC1 [Example 369, 2-(4-(difluoromethylene)piperidin-1-yl)-N-(7-fluoro-3,4-dihydro-1H-benzo[4,5]imidazo[2,1-c][1,4]oxazin-9-yl)-4-((2-hydroxyethyl)sulfonamido)benzamide] |  |
| ≤ 50 | ≤ 50 | CCS(=O)(=O)Nc1ccc(C(=O)Nc2cccc3c2cc2n3CCCC2O)c(N2CCC3(CC2)CC3)c1 (stereo not shown) [Example 373, 4-(ethylsulfonamido)-N-(9-hydroxy-6,7,8,9-tetrahydropyridino[1,2-a]indol-1-yl)-2-(6-azaspiro[2.5]oct-6-yl)benzamide] |  |
| ≤ 50 |  | CCS(=O)(=O)Nc1ccc(C(=O)Nc2cccc3c2cc2n3CCC(F)(F)C2O)c(N2CCC(=C(F)F)CC2)c1 (stereo not shown) [Example 381, N-(8,8-difluoro-9-hydroxy-6,7,8,9-tetrahydropyridino[1,2-a]indol-1-yl)-2-(4-(difluoromethylene)piperidin-1-yl)-4-ethyl sulfonamidobenzamide] | ≤ 50 |
| 50 to 500 | ≤ 50 | N#Cc1ccc(NC(=O)c2ccc(NS(=O)(=O)CCO)cc2N2CCC3(CC2)CC3)c2cc3n(c12)CCC(F)(F)C3O (stereo not shown) [Example 438, N-(4-cyano-8,8-difluoro-9-hydroxy-6,7,8,9-tetrahydropyridino[1,2-a]indol-1-yl)-4-((2-hydroxyethyl)sulfonamido)-2-(6-azaspiro[2.5]oct-6-yl)benzamide] |  |

| Structure (SMILES) | IC50 [1] [nM] | IC50 ([2]; Homo sapiens, OVCAR-3, 240 h) [nM] | IC50 [2] [nM] |
| --- | --- | --- | --- |
| CC1Cn2c(nc3c(NC(=O)c4ccc(NS(=O)(=O)CCO)cc4N4CCC5(CC4)CC5)cccc32)C(C)O1 (stereo not shown) [Example 444, 2-(6-azaspiro[2.5]oct-6-yl)-N-(1,3-dimethyl-3,4-dihydro-1H-benzo[4,5]imidazo[2,1-c][1,4]oxazin-9-yl)-4-{[(2-hydroxyethyl)sulfonamide]}benzamide] | ≤ 50 |  | ≤ 50 |
| CC1Cn2c(nc3c(NC(=O)c4ccc(NS(=O)(=O)CCO)cc4N4CCC5(CC4)CC5)ccc(F)c32)C(C)O1 (stereo not shown) [Example 445, 2-(6-azaspiro[2.5]oct-6-yl)-N-(6-fluoro-1,3-dimethyl-3,4-dihydro-1H-benzo[4,5]imidazo[2,1-c][1,4]oxazin-9-yl)-4-{[(2-hydroxyethyl)sulfonamide]}benzamide] | ≤ 50 |  | ≤ 50 |
